Source: article doi:10.1101/2024.07.04.602053v1, “Evidence for low affinity of GABA at the vesicular monoamine transporter VMAT2 – implications for transmitter co-release from dopamine neurons” (biorxiv, 2024)

Biological target: T1, human VMAT2-eGFP (HEK-293-VMAT2:eGFP) (Homo sapiens, UniProt Q05940)
T1 construct: gene SLC18A2
Experiment: inhibition of [3H]dopamine uptake, digitonin-permeabilized cells
Format: cell-based

T1 sequence (Q05940 whole entry): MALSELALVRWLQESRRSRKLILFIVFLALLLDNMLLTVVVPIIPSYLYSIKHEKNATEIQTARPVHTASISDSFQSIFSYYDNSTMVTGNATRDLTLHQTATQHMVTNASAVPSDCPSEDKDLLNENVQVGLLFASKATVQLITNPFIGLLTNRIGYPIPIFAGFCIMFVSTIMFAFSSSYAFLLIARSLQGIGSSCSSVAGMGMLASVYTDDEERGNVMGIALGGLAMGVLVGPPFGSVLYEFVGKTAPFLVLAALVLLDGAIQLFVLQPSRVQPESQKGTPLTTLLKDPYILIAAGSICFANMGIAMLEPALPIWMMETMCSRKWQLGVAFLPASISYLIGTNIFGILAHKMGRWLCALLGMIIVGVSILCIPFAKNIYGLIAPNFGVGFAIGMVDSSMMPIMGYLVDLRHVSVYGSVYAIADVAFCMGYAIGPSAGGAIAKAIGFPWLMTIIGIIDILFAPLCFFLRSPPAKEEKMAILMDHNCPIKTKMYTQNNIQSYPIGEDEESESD

Structure (SMILES)	IC50 [µM]
NCCc1ccc(O)c(O)c1 [dopamine]	4.9
COc1cc2c(cc1OC)C1CC(=O)C(CC(C)C)CN1CC2 (centres unmarked) [tetrabenazine]	0.0288
